Results published in US20200392084A1 (priority 2017, published 2020).
Converted amounts (≈) assume the structure as drawn. “Also recorded” adds a separate entry of the source. Like-named read-outs stand apart in the source and are kept apart here.

Tests used:
[1] = cited from earlier work
[2] = logP determination (pH-metric); format: physicochemical; conditions: 24.9-25.0 °C, 0.15M KCl
[3] = pKa determination (UV-metric); format: physicochemical; conditions: 0.15 M KCl
[4] = Solvent solubility screen; format: physicochemical; conditions: thermodynamic from solid
[5] = Stability assessment of diethylamine salt (Example 6); format: physicochemical
[6] = for hygroscopicity: Example 4; for moisture absorbed: at/up to 95% RH
[7] = 50° C./75% RH, t=5 days
[8] = at 90% RH, 25° C.; listed as salt from diethylamine
[9] = Forced degradation studies (Example 7)
[10] = slurried in deionised water, ambient temperature, ca. 24 hrs
[11] = H2O/acetone, ca. 12 hrs
[12] = 25° C./60% RH, 1 month (Day 35)
[13] = 25° C./60% RH, 3 months (Day 96)
[14] = 40° C./75% RH, 1 month (Day 35)
[15] = 40° C./75% RH, 3 months (Day 96)
[16] = Hydrolytic (humidity), 55° C./75% RH, solid state, 8 days
[17] = Hydrolytic (humidity), 55° C./75% RH, solid state, 14 days
[18] = Hydrolytic, Acid, 1N HCl, 55° C., 8 days
[19] = Hydrolytic, Acid, 1N HCl, 55° C., 14 days
[20] = Hydrolytic, Base, 1N NaOH, 55° C., 8 days
[21] = Hydrolytic, Base, 1N NaOH, 55° C., 14 days
[22] = Oxidative, 3% H2O2, ambient temperature, 8 days
[23] = Photolytic Control (dark control in photochamber), 2X ICH
[24] = Photolytic Control (dark control in photochamber), 3X ICH
[25] = Photolytic, photochamber 25° C., solid state, 2X ICH
[26] = Photolytic, photochamber 25° C., solid state, 3X ICH
[27] = Solution Control (water, 55° C.), 8 days
[28] = Solution Control (water, 55° C.), 14 days
[29] = Solution Control (water, ambient), 8 days
[30] = Solution Control (water, ambient), 14 days
[31] = Thermolytic, 85° C., ambient humidity, solid state, 8 days
[32] = Thermolytic, 85° C., ambient humidity, solid state, 14 days

NCCCC[C@H](N)C(=O)O.O=C(O)c1cc(/N=N/c2ccc(S(=O)(=O)Nc3ccccn3)cc2)ccc1O [L-Lysine Salt, sulfasalazine L-lysine (1:1) salt]
Post-agitation pH (pH 1): 1.91 | Pre-agitation pH (pH 1): 0.76 | Post-agitation pH (pH 4.5): 5.63 | Pre-agitation pH (pH 4.5): 4.70 | Post-agitation pH (pH 6.8): 7.17 | Pre-agitation pH (pH 6.8): 6.99

Nc1ccc(S(=O)(=O)Nc2ccccn2)cc1 [Sulfapyridine, sulfapyridine]
allergic reactions ([1]; of recipients): 3-8%

O=C(O)c1cc(/N=N/c2ccc(S(=O)(=O)Nc3ccccn3)cc2)ccc1O [Sulfasalazine]
solubility (physchem; acetone, organic solvent or mixture): 1100 µg/mL (≈ 2.76 mM) | solubility (physchem; acetonitrile, organic solvent or mixture): 300 µg/mL (≈ 0.753 mM) | solubility (physchem; ethanol, organic solvent or mixture): 500 µg/mL (≈ 1.26 mM) | solubility (physchem; ethyl acetate, organic solvent or mixture): 400 µg/mL (≈ 1 mM) | solubility (physchem; isopropyl alcohol, organic solvent or mixture): 500 µg/mL (≈ 1.26 mM) | solubility (physchem; methanol, organic solvent or mixture): 900 µg/mL (≈ 2.26 mM) | solubility (physchem; methyl ethyl ketone, organic solvent or mixture): 900 µg/mL (≈ 2.26 mM) | solubility (physchem; methyl tert-butyl ether, organic solvent or mixture): 300 µg/mL (≈ 0.753 mM) | solubility (physchem; water): 400 µg/mL (≈ 1 mM) | LogP ([2]; Cationic species): 3.73 ± 0.01 | LogP ([2]; Zwitterionic species): 0.02 ± 0.03 | pKa ([3]; Type Acid (first acidic group), 25.0 °C): 2.29 | pKa ([3]; Type Acid (second acidic group), 25.0-25.1 °C): 11 | pKa ([3]; Type Base (pyridine), 25.0-25.1 °C): ~8.05 | solubility ([4]; 1,4-dioxane, 40 °C, organic solvent or mixture, 1,4-Dixoane, read-out: Approx. Solubility): < 5000 µg/mL | solubility ([4]; 1-butanol, 40 °C, organic solvent or mixture, read-out: Approx. Solubility): < 5000 µg/mL | solubility ([4]; 1-propanol, 40 °C, organic solvent or mixture, read-out: Approx. Solubility): < 5000 µg/mL | solubility ([4]; 2-propanol, 40 °C, organic solvent or mixture, read-out: Approx. Solubility): < 5000 µg/mL | solubility ([4]; 2-propanol/water (50:50), 40 °C, aqueous with cosolvent or surfactant or cyclodextrin, read-out: Approx. Solubility): < 5000 µg/mL | solubility ([4]; 40 °C, organic solvent or mixture, all solvents of the 24-solvent screen except DMF and THF, read-out: solubility values): < 5000 µg/mL | solubility ([4]; acetone, 40 °C, organic solvent or mixture, read-out: Approx. Solubility): < 5000 µg/mL | solubility ([4]; acetone/water (50:50), 40 °C, aqueous with cosolvent or surfactant or cyclodextrin, read-out: Approx. Solubility): < 5000 µg/mL | solubility ([4]; acetonitrile, 40 °C, organic solvent or mixture, read-out: Approx. Solubility): < 5000 µg/mL | solubility ([4]; acetonitrile/water (50:50), 40 °C, aqueous with cosolvent or surfactant or cyclodextrin, read-out: Approx. Solubility): < 5000 µg/mL | solubility ([4]; dichloromethane, 40 °C, organic solvent or mixture, read-out: Approx. Solubility): < 5000 µg/mL | solubility ([4]; dimethylformamide, organic solvent or mixture, read-out: Approx. Solubility): > 100000 µg/mL | solubility ([4]; ethanol, 40 °C, organic solvent or mixture, read-out: Approx. Solubility): < 5000 µg/mL | solubility ([4]; ethyl acetate, 40 °C, organic solvent or mixture, read-out: Approx. Solubility): < 5000 µg/mL | solubility ([4]; ethyl formate, 40 °C, organic solvent or mixture, read-out: Approx. Solubility): < 5000 µg/mL | solubility ([4]; heptane, 40 °C, organic solvent or mixture, Hepatane, read-out: Approx. Solubility): < 5000 µg/mL | solubility ([4]; isobutyl acetate, 40 °C, organic solvent or mixture, read-out: Approx. Solubility): < 5000 µg/mL | solubility ([4]; isopropyl acetate, 40 °C, organic solvent or mixture, read-out: Approx. Solubility): < 5000 µg/mL | solubility ([4]; methanol, 40 °C, organic solvent or mixture, read-out: Approx. Solubility): < 5000 µg/mL | solubility ([4]; methanol/water (50:50), 40 °C, aqueous with cosolvent or surfactant or cyclodextrin, read-out: Approx. Solubility): < 5000 µg/mL | solubility ([4]; methyl ethyl ketone, 40 °C, organic solvent or mixture, Methylethyl Ketone, read-out: Approx. Solubility): < 5000 µg/mL | solubility ([4]; nitromethane, 40 °C, organic solvent or mixture, read-out: Approx. Solubility): < 5000 µg/mL | solubility ([4]; tetrahydrofuran, organic solvent or mixture, read-out: Approx. Solubility): 10000 µg/mL (≈ 25.1 mM) | solubility ([4]; toluene, 40 °C, organic solvent or mixture, read-out: Approx. Solubility): < 5000 µg/mL | solubility ([4]; water, 40 °C, water, read-out: Approx. Solubility): < 5000 µg/mL | Significant side effects occur in ([1]; of people): about 25% | Thermodynamic solubility, Concentration (pH 1): Less than the limit | Thermodynamic solubility, Concentration (pH 4.5): Less than the limit | Thermodynamic solubility, Concentration (pH 6.8): Less than the limit

CCNCC.O=C(O)c1cc(/N=N/c2ccc(S(=O)(=O)Nc3ccccn3)cc2)ccc1O [diethylamine salt Form A, sulfasalazine diethylamine salt Form A]
Appearance [5, 12]: Dark Orange | Assay (Anhydrous, Solvent Free) [5, 12]: 97.2% (w/w %) | Total Impurities [5, 12]: 0.87% | Water Content [5, 12]: 0.8% (w/w %) | XRPD (Conforms to Form A) [5, 12]: Conforms to | Appearance [5, 13]: Dark Orange | Assay (Anhydrous, Solvent Free) [5, 13]: 95.9% (w/w %) | Total Impurities [5, 13]: 0.76% | Water Content [5, 13]: 0.7% (w/w %) | XRPD (Conforms to Form A) [5, 13]: Conforms to | Appearance [5, 14]: Dark Orange | Assay (Anhydrous, Solvent Free) [5, 14]: 97.9% (w/w %) | Total Impurities [5, 14]: 0.87% | Water Content [5, 14]: 1.1% (w/w %) | XRPD (Conforms to Form A) [5, 14]: Conforms to | Appearance [5, 15]: Dark Orange | Assay (Anhydrous, Solvent Free) [5, 15]: 96.5% (w/w %) | Total Impurities [5, 15]: 0.77% | Water Content [5, 15]: 1.1% (w/w %) | XRPD (Conforms to Form A) [5, 15]: Conforms to | Appearance ([5]; T = 0 (Day 0)): Dark Orange | Assay (Anhydrous, Solvent Free) ([5]; T = 0 (Day 0)): 99.6% (w/w %) | Total Impurities ([5]; T = 0 (Day 0)): 0.73% | Water Content ([5]; T = 0 (Day 0)): 0.4% (w/w %) | XRPD (Conforms to Form A) ([5]; T = 0 (Day 0)): Conforms to | hygroscopicity [6]: slightly hygroscopic | moisture absorbed [6]: more than 1 wt % | stability [7]: no evidence of degradation

NC(CO)(CO)CO.O=C(O)c1cc(/N=N/c2ccc(S(=O)(=O)Nc3ccccn3)cc2)ccc1O [tromethamine salt Form A, sulfasalazine tromethamine (1:1) salt form (Form A)]
hygroscopicity [6]: hygroscopic | moisture absorbed [6]: over 8 wt %

sulfasalazine diethylamine (1:1) salt [Diethylamine Salt]
DVS mass uptake [8]: 1.0% | % Change [9, 16]: 0.11% | Area % (main band) [9, 16]: 98.97% | % Change [9, 17]: −0.02% | Area % (main band) [9, 17]: 99.10% | degradation observed ([9]; Hydrolytic (humidity), 75% RH, 55° C., 14 days): Minimal degradation | Peak Purity ([9]; Hydrolytic (humidity), 14 days): Pass | % Change [9, 18]: −0.19% | Area % (main band) [9, 18]: 99.03% | % Change [9, 19]: −0.25% | Area % (main band) [9, 19]: 98.93% | degradation observed [9, 19]: Minimal degradation | Peak Purity ([9]; Hydrolytic, Acid, 14 days): Pass | % Change [9, 20]: −0.19% | Area % (main band) [9, 20]: 99.03% | % Change [9, 21]: −0.25% | Area % (main band) [9, 21]: 98.93% | degradation observed [9, 21]: Minimal degradation | Peak Purity ([9]; Hydrolytic, Base, 14 days): Pass | % Change [9, 22]: 1.36% | Area % (main band) [9, 22]: 97.52% | Area % (main band) ([9]; Oxidative, 3% H2O2, ambient temperature, 14 days): 97.30% | Peak Purity ([9]; Oxidative, 14 days): Pass | % Change [9, 23]: −0.05% | Area % (main band) [9, 23]: 99.13% | % Change [9, 24]: −0.05% | Area % (main band) [9, 24]: 99.13% | Peak Purity ([9]; Photolytic, 3X ICH): Pass | degradation observed ([9]; Photolytic, 3× ICH exposure): Minimal degradation | % Change [9, 25]: 0.42% | Area % (main band) [9, 25]: 98.71% | % Change [9, 26]: 0.10% | Area % (main band) [9, 26]: 99.03% | Area % (main band) ([9]; Solid Control (unstressed), 0 days): 99.08% | % Change [9, 27]: 0.24% | Area % (main band) [9, 27]: 98.84% | % Change [9, 28]: 0.39% | Area % (main band) [9, 28]: 98.69% | % Change [9, 29]: 0.20% | Area % (main band) [9, 29]: 98.88% | % Change [9, 30]: 0.20% | Area % (main band) [9, 30]: 98.88% | degradation observed ([9]; Thermolytic, 80° C., 14 days): Minimal degradation | % Change [9, 31]: 0.12% | Area % (main band) [9, 31]: 98.96% | % Change [9, 32]: 0.05% | Area % (main band) [9, 32]: 99.03% | Peak Purity ([9]; Thermolytic, 14 days): Pass | Salt disproportionation, XRPD [10]: Small change | Hydration studies, XRPD ([11]; High water activity (0.790)): no solid could be obtained | Hydration studies, XRPD ([11]; Low water activity (0.281)): slight changes; also recorded: Small change | Hydration studies, XRPD ([11]; Medium water activity (0.572)): slight changes; also recorded: Small change
